Literature values, collected in patent US20110064816A1 (DR. REDDY'S LABORATORIES LTD., priority 2008, published 2011).
Where a name gives a salt, the structure may show the parent alone.

Conditions: exposed to heat, moisture, light and low pH conditions

CC(C)c1c(C(=O)Nc2ccccc2)c(-c2ccccc2)c(-c2ccc(F)cc2)n1CC[C@@H](O)C[C@@H](O)CC(=O)O (relative stereo) [Atorvastatin calcium, [R-(R*,R*)]-2-(4-fluorophenyl)-β,δ-dihydroxy-5-(1-methylethyl)-3-phenyl-4-[(phenylamino)carbonyl]-1H-pyrrole-1-heptanoic acid, calcium salt (2:1) trihydrate]
Degradation from the carboxylic form to a lactone form: susceptible to degradation
